Experimental data from article PMC11300601, “Zurletrectinib is a next-generation TRK inhibitor with strong intracranial activity against NTRK fusion-positive tumours with on-target resistance to first-generation agents” (British Journal of Cancer, 2024).
Like-named read-outs stand apart in the source and are kept apart here.

What was measured:
Experiment in all cases: Ba/F3 cell viability (anti-proliferative activity)
Assay type in all cases: cell-based, mouse
[1] = system: Ba/F3 LMNA-NTRK1-A608D
Description: (§1) NTRK fusion-positive colorectal cancer cell lines IRC, Kor1, and KM12 were utilized. The IRC and the KM12 cell lines were obtained from Dr. Bardelli and cultured according to the described protocols. The Kor1 cell line was obtained from Lee et al. and cultured on laminin pre-treated plates in RPMI media supplemented with 10% Fetal Bovine Serum (FBS). All cell lines were authenticated by STR and periodically screened for the presence of mycoplasma. For the mutant models, two human-derived colorectal cancer cell lines (IRC) and two mouse-derived glioma models (NLS) were used. […] Sequencing of the double mutant cell line was performed using MSK-IMPACT [25]. IRC primary cell lines were cultured with DMEM/F12 50:50 Mix (Corning) supplemented with 10% FBS. NLS Bcan-Ntrk1 Trka G598R and Bcan-Ntrk1 Trka G670C single mutants as well as double mutants NLS Bcan-Ntrk1 Trka G598R/G670A and NLS Bcan-Ntrk1 Trka G598R/G670C isogenic models were established using CRISPR/Cas9 to knock-in TRKA solvent-front and xDFG mutations into tumor cells derived from a Bcan-Ntrk1-driven glioma mouse model. Trka G598R is the mouse ortholog to human TRKA G595R while Trka G670A and Trka G670C are the mouse ortholog to human TRKA G667A and TRKA G667C, respectively. Mouse p53 ^−/^− Bcan-Ntrk1 glioma cells were plated on laminin-coated plates and cultured with Neurocult Stem Cell Basal Media with Proliferation Supplements (Stem Cell Technologies). Ba/F3 cell lines stably expressing WT and mutant versions (i.e. G595R, G667C/A, V573M, F589L, F633L, F617L, G623R/E, G639R, G696A/C, G709C, V608D/M) of human TRKA, TRKB or TRKC were generated using either lentiviral transduction or standard transfection methods by a contract research organization (Kyinno, Beijing, China).
(§2) CellTiter-Glo Cell Viability Assays (Promega) and crystal violet clonogenic assays were performed on primary NTRK fusion-positive colorectal cancer cell lines, mouse Ba/F3 cell lines and isogenic mouse glioma cell lines. For the CellTiter-Glo assays, three biological replicates were performed, with each condition being assayed in triplicate determinations. Cells were seeded in a 96-well plate in the afternoon at optimal density. […] Plates were removed from the incubator 72 h later and CellTiter-Glo reagent was added. Absorbance was read at 490 nm in accordance with Promega’s protocol. Data is presented as a survival percentage on the y-axis (mean ± STDEV) normalized to the control DMSO-treated cells deemed 100% viable. Drug concentrations on the x-axis are represented as a base 10 logarithm (LOG). For the crystal violet assays, cells were seeded in a 24-well plate at optimal densities in the afternoon. […] Crystal violet plates were removed from the incubator 72 h later, washed with PBS, fixed with 4% paraformaldehyde for 15 min, and stained with crystal violet for 10 min. Crystal violet was washed off and plates were left to dry prior to imaging. Clonogenic assays were performed in three biological replicates.
(§3) Statistical analyses were conducted using GraphPad Prism 9 (GraphPad Software Inc.). For CellTiter-Glo assays, raw data obtained were normalized to the DMSO control utilizing Microsoft Excel. […] Data is presented as the mean ± standard deviation (STDEV) of all replicates. Measurements were assessed for normal distribution and homogeneity of variance using appropriate tests and were analyzed using analysis of variance or T-Tests, and nonparametric tests were used for non-normal distributed data. Animal studies utilized five arms with six or eight mice per arm. A Kaplan–Meier test was used to assess lifespan characteristics and for comparison between groups. Median survivals were obtained using GraphPad Prism 9. Sample size was based on statistical power analysis to ensure sufficient capability to detect a pre-specified effect size. We assumed a moderate effect size, with an alpha level set at 0.05, and a power (1-β) set at 0.80.

[2] = system: Ba/F3 LMNA-NTRK1-F589L
Description: as §1, §2, §3

[3] = system: Ba/F3 LMNA-NTRK1-G595R
Description: as §1, §2, §3

[4] = system: Ba/F3 LMNA-NTRK1-G667A
Description: as §1, §2, §3

[5] = system: Ba/F3 LMNA-NTRK1-G667C
Description: as §1, §2, §3

[6] = system: Ba/F3 LMNA-NTRK1
Description: as §1, §2, §3

[7] = system: Ba/F3-LMNA-NTRK1-V573M
Description: as §1, §2, §3

[8] = system: Ba/F3 LMNA-NTRK1-G667S

Compound	IC50 ([1]; Mus musculus, BaF3)	IC50 ([2]; Mus musculus, BaF3)	IC50 ([3]; Mus musculus, BaF3)	IC50 ([4]; Mus musculus, BaF3)	IC50 ([5]; Mus musculus, BaF3)	IC50 ([6]; Mus musculus, BaF3)	IC50 ([7]; Mus musculus, BaF3)	IC50 ([8]; Mus musculus, BaF3)	IC50 [1]	IC50 [2]	IC50 [3]	IC50 [4]	IC50 [5]	IC50 [6]	IC50 [7]	IC50 [8]
O=C(Nc1cnn2ccc(N3CCC[C@@H]3c3cc(F)ccc3F)nc12)N1CC[C@H](O)C1 [Larotrectinib, larotrectinib]	0.0197 µM	0.614 µM	3.2 µM	0.118 µM	1.37 µM	0.0218 µM	0.0454 µM	3.2 µM	–	–	–	–	–	–	–	–
C[C@@H]1CCc2ncc(F)cc2[C@H]2CCCN2c2ccn3ncc(c3n2)C(=O)N1 [Selitrectinib, selitrectinib]	0.00316 µM	0.0469 µM	0.0181 µM	0.0211 µM	0.164 µM	0.00338 µM	0.00547 µM	0.537 µM	–	–	–	–	–	–	–	–
zurletrectinib	–	–	–	–	–	–	–	–	0.00118 µM	0.0408 µM	0.011 µM	0.00527 µM	0.0388 µM	0.0012 µM	0.00233 µM	0.193 µM
